Measured values from patent US9682999B2, “Benzofuran compounds for the treatment of hepatitis C virus infections” (Glaxo Group Limited, priority 2011, dated 2017).
Where two headings read alike, the source gives them in different places.

Assays:
[1] = test system: sub-genomic HCV NS3-NS5B replicon genotype 1a C316Y (Huh-7 cells); assay: Replicon luciferase cell based assay, genotype 1a C316Y; conditions: Hepatitis C virus, Huh-7, 48 h, read-out: EC50 1a 316Y
Protocol: (§1) 150 μL of a 1 mM stock solution in DMSO of each test compound was transferred into in the first column of a 96 well, V-bottom microplate, to give 200 times the top concentration of the required dilution series. Aliquots of 50 μL were added to each well of the remaining rows containing 100 μL of DMSO giving a 1:3 dilution series over ten points. Columns 11 and 12 contained DMSO only for the positive and negative control, respectively. 10 μL of each well were transferred into 90 μL of DMEM medium (Invitrogen #41965-039) supplemented with 5% v/v foetal calf serum, 1% v/v non-essential amino acids solution, 100 units/ml penicillin, 100 μg/ml streptomycin and 2 mM L-glutamine to give 20 times the top concentration of the required dilution series.
(§2) Suspensions were prepared from cultures of Huh-7 cells stably transfected with sub-genomic HCV NS3-NS5B replicons of either genotype 1b (the ET subline described by Pietschmann, T., Lohmann, V., Kaul, A., Krieger, N., Rinck, G., Rutter, G., Strand, D. & Bartenschlager, R., Journal of Virology, 2002, 76, 4008-4021), genotype 1a (subline 1.19 constructed in-house from H77 SG-Neo containing adaptive mutations P1496L and S2204I as described by Blight, K. J., McKeating, J. A., Marcotrigiano, J., and Rice, C. M. Journal of Virology, 2003, 77, 3180-3190), genotype 1b C316N (constructed in-house by site directed mutagenesis of the NS5B gene of the ET subline), or genotype 1a C316Y (constructed in-house by site directed mutagenesis of the NS5B gene of H77 SG-Neo containing adaptive mutations P1496L and S2204I as described by Blight, K. J., McKeating, J. A., Marcotrigiano, J., and Rice, C. M. Journal of Virology, 2003, 77, 3180-3190) linked to a firefly luciferase reporter gene. Monolayers nearing confluency were stripped from growth flasks with versene-trypsin solution and the cells re-suspended in assay medium comprising DMEM. 95 μL of suspension containing either 15,000 cells (genotype 1b luciferase replicon) or 20,000 cells (genotype 1a luciferase replicon) were added to all wells of a 96 well plate (Perkin Elmer, #6005686), except medium controls in column 12 of the assay plate. The cell suspension was dosed with 5 μL of compound solution and the plate was incubated for 48 hours at 37° C. in a 5% CO2 atmosphere.
(§3) For toxicity the cells in one plate were treated with Cell Titer Glo (Promega, #G7573). A solution of Cell Titer Glo was prepared according to the manufacturer's instructions, and 100 μL added to each well. The plate was then read for luminescence on an Envision. For potency a solution of Steady Glo (Promega, #E2550) was prepared according to the manufacturer's instructions and 100 μL added to each well. After a twenty minute incubation the plate was then read for luminescence on an Envision.
(§4) Potency: The luminescence values from all compound-free wells containing cells were averaged to obtain a positive control value. The mean luminescence value from the compound-free wells that had received no cells was used to provide the negative (background) control value. The readings from the wells at each compound concentration were taken and after the subtraction of the mean background from all values, were expressed as a percentage of the positive control signal. The quantifiable and specific reduction of luciferase signal in the presence of a drug is a direct measure of replicon inhibition. BioAssay Enterprise (CamebridgeSoft) with the XC50 module for curve fitting was used to plot the curve of percentage inhibition against compound concentration and derive the 50% inhibitory concentration (EC50) for the compound. EC50 is the effective concentration, that is, the concentration of compound where 50% maximal effect is observed. The EC50 values of two identical plates were averaged. The results are presented in Table 1 as EC50 for genotypes (GT) 1a, 1b, 1b 316N and 1a 316Y.

[2] = test system: sub-genomic HCV NS3-NS5B replicon genotype 1a (Huh-7 cells); assay: Replicon luciferase cell based assay, genotype 1a; conditions: Huh-7 genotype 1a luciferase replicon, 48 hours, read-out: EC50 GT 1a
Protocol: as §1, §2, §3, §4

[3] = test system: sub-genomic HCV NS3-NS5B replicon genotype 1b (Huh-7 cells); assay: Replicon luciferase cell based assay, genotype 1b; conditions: Hepatitis C virus; Huh-7 genotype 1b luciferase replicon, 48 hours; read-out: EC50 GT1b
Protocol: as §1, §2, §3, §4

[4] = test system: sub-genomic HCV NS3-NS5B replicon genotype 1b C316N (Huh-7 cells); assay: Replicon luciferase cell based assay, genotype 1b C316N; conditions: read-out: EC50 1b 316N
Protocol: as §1, §2, §3, §4

[5] = In vivo pharmacokinetic study, rat
Protocol: In vivo pharmacokinetic studies were conducted in mouse, rat, dog, or cynomolgus monkey to determine clearance, oral exposure and bioavailability (% F). Solution doses of the compounds were administered intravenously through catheters or orally by gavage. Blood samples were collected at the following time points (n=2 or 3/route/species): 0.083 (IV only), 0.167 (IV only), 0.25, 0.5, 1, 2, 4, 6, 8, 12, and 24 h. Non-compartmental pharmacokinetic parameters were determined using Phoenix Winnonlin 6.1 (Pharsight, Mountain View, Calif.). Bioavailability of the oral formulation of each compound were calculated as the ratio of the oral dose normalized AUCinf to the intravenous dose normalized AUCinf. Results are expressed in Table 2.

Row | SMILES | EC50 [1] | EC50 ([2]; Hepatitis C virus) | EC50 [3] | EC50 ([4]; Hepatitis C virus, Huh-7, 48 h) | also measured
1 | CNC(=O)c1c(-c2ccc(F)cc2)oc2cc(N(c3ccc(C4CCB(O)O4)c(Cl)c3)S(C)(=O)=O)c(C3CC3)cc12 (single isomer, unassigned; enantiomer 1) [Example 28, 6-(N-(3-Chloro-4-(2-hydroxy-1,2-oxaborolan-5-yl)phenyl)methylsulfonamido)-5-cyclopropyl-2-(4-fluorophenyl)-N-methylbenzofuran-3-carboxamide, enantiomer 1] | 11 to 200 nM | 1 to 10 nM | 1 to 10 nM | 11 to 200 nM | 
2 | CNC(=O)c1c(-c2ccc(F)cc2)oc2cc(N(c3ccc(C4CCB(O)O4)c(Cl)c3)S(C)(=O)=O)c(C3CC3)cc12 (single isomer, unassigned; enantiomer 2) [Example 29, 6-(N-(3-Chloro-4-(2-hydroxy-1,2-oxaborolan-5-yl)phenyl)methylsulfonamido)-5-cyclopropyl-2-(4-fluorophenyl)-N-methylbenzofuran-3-carboxamide, enantiomer 2] |  |  |  |  | EC50 [2]: 1 to 10 nM; EC50 ([4]; Huh-7 genotype 1b C316N luciferase replicon, 48 hours): 11 to 200 nM
3 | CNC(=O)c1c(-c2ccc(Cl)cc2)oc2cc(N(Cc3ccc(B(O)O)c(F)c3)S(C)(=O)=O)c(C3CC3)cc12 [C] |  |  |  |  | DNAUC ([5]; Rat): 434 ng·h/mL/mg/kg; T 1/2 ([5]; Rat): 1.8 H; clearance ([5]; rat, blood, intravenous): 15.6 mL/min/kg; Vd ([5]; rat, blood, intravenous, read-out: Vss): 1.1 L/kg; bioavailability ([5]; rat, blood, oral): 40%
4 | CNC(=O)c1c(-c2ccc(Cl)cc2)oc2cc(N(c3ccc(B(O)O)c(Cl)c3)S(C)(=O)=O)c(C3CC3)cc12 [Example 2, (2-Chloro-4-(N-(2-(4-chlorophenyl)-5-cyclopropyl-3-(methylcarbamoyl)benzofuran-6-yl)methylsulfonamido)phenyl)boronic acid] | 1 to 10 nM | 1 to 10 nM | 1 to 10 nM | 1 to 10 nM | 
5 | CNC(=O)c1c(-c2ccc(F)cc2)oc2cc(N(c3ccc(B(O)O)cc3)S(C)(=O)=O)c(C3CC3)cc12 [Example 3, 4-(N-(5-cyclopropyl-2-(4-fluorophenyl)-3-(methylcarbamoyl)benzofuran-6-yl)methylsulfonamido)phenylboronic acid] | 200 to 1000 nM | 1 to 10 nM | 1 to 10 nM | 1 to 10 nM | 
6 | CNC(=O)c1c(-c2ccc(F)cc2)oc2cc(N(c3cccc(B(O)O)c3)S(C)(=O)=O)c(C3CC3)cc12 [Example 4, 3-(N-(5-cyclopropyl-2-(4-fluorophenyl)-3-(methylcarbamoyl)benzofuran-6-yl)methylsulfonamido)phenylboronic acid] | > 1000 nM | 1 to 10 nM | 1 to 10 nM | 11 to 200 nM | 
7 | CNC(=O)c1c(-c2ccc(F)cc2)oc2cc(N(c3ccc(B(O)O)c(F)c3)S(C)(=O)=O)c(C3CC3)cc12 [Example 5, 4-(N-(5-cyclopropyl-2-(4-fluorophenyl)-3-(methylcarbamoyl)benzofuran-6-yl)methylsulfonamido)-2-fluorophenylboronic acid] | 11 to 200 nM | 1 to 10 nM | 1 to 10 nM | 1 to 10 nM | 
8 | CNC(=O)c1c(-c2ccc(F)cc2)oc2cc(N(c3ccc(B(O)O)cc3F)S(C)(=O)=O)c(C3CC3)cc12 [Example 6, 4-(N-(5-cyclopropyl-2-(4-fluorophenyl)-3-(methylcarbamoyl)benzofuran-6-yl)methylsulfonamido)-3-fluorophenylboronic acid] | > 1000 nM | 1 to 10 nM | 1 to 10 nM | 11 to 200 nM | 
9 | CNC(=O)c1c(-c2ccc(Cl)cc2)oc2cc(N(c3ccc(B(O)O)c(F)c3)S(C)(=O)=O)c(C3CC3)cc12 [Example 7, 4-(N-(2-(4-chlorophenyl)-5-cyclopropyl-3-(methylcarbamoyl)benzofuran-6-yl)methylsulfonamido)-2-fluorophenylboronic acid] | 11 to 200 nM | 1 to 10 nM | 1 to 10 nM | 1 to 10 nM | 
10 | CNC(=O)c1c(-c2ccc(F)cc2)oc2cc(N(c3ccc(B(O)O)cn3)S(C)(=O)=O)c(C3CC3)cc12 [Example 8, 6-(N-(5-cyclopropyl-2-(4-fluorophenyl)-3-(methylcarbamoyl)benzofuran-6-yl)methylsulfonamido)pyridin-3-ylboronic acid] |  | > 1000 nM | > 1000 nM | > 1000 nM | 
11 | CNC(=O)c1c(-c2ccc(F)cc2)oc2cc(N(c3ccc(B(O)O)c(C(F)F)c3)S(C)(=O)=O)c(C3CC3)cc12 [Example 9, (4-(N-(5-cyclopropyl-2-(4-fluorophenyl)-3-(methylcarbamoyl)benzofuran-6-yl)methylsulfonamido)-2-(difluoromethyl)phenyl)boronic acid] | 11 to 200 nM | 1 to 10 nM | 1 to 10 nM | 1 to 10 nM | 
12 | CNC(=O)c1c(-c2ccc(F)cc2)oc2cc(N(c3ccc(B(O)O)c(C(F)(F)F)c3)S(C)(=O)=O)c(C3CC3)cc12 [Example 10, (4-(N-(5-cyclopropyl-2-(4-fluorophenyl)-3-(methylcarbamoyl)benzofuran-6-yl)methylsulfonamido)-2-(trifluoromethyl)phenyl)boronic acid] | 11 to 200 nM | 1 to 10 nM | 1 to 10 nM | 1 to 10 nM | 
13 | CNC(=O)c1c(-c2ccc(F)cc2)oc2cc(N(c3ccc(B(O)O)c(C#N)c3)S(C)(=O)=O)c(C3CC3)cc12 [Example 12, (2-cyano-4-(N-(5-cyclopropyl-2-(4-fluorophenyl)-3-(methylcarbamoyl)benzofuran-6-yl)methylsulfonamido)phenyl)boronic acid] | 11 to 200 nM | 1 to 10 nM | 1 to 10 nM | 1 to 10 nM | 
14 | CS(=O)(=O)N(c1ccc(B(O)O)c(Cl)c1)c1cc2oc(-c3ccc(Cl)cc3)c(C(=O)O)c2cc1C1CC1 [Example 13, 6-(N-(4-borono-3-chlorophenyl)methylsulfonamido)-2-(4-chlorophenyl)-5-cyclopropylbenzofuran-3-carboxylic acid] |  | > 1000 nM | > 1000 nM | > 1000 nM | 
15 | CNC(=O)c1c(-c2ccc(F)cc2)oc2cc(N(c3ccc(OCB(O)O)cc3)S(C)(=O)=O)c(C3CC3)cc12 [Example 18, ((4-(N-(5-Cyclopropyl-2-(4-fluorophenyl)-3-(methylcarbamoyl)benzofuran-6-yl)methylsulfonamido)phenoxy)methyl)boronic acid] | 11 to 200 nM |  | 1 to 10 nM | 11 to 200 nM | 
16 | CNC(=O)c1c(-c2ccc(F)cc2)oc2cc(N(c3ccc4c(c3)CCOB4O)S(C)(=O)=O)c(C3CC3)cc12 [Example 30] |  | 1 to 10 nM | 1 to 10 nM | 1 to 10 nM | 
